According to ChEMBL document CHEMBL3526130, “An evaluation of using rat-derived single-dose neuropharmacokinetic parameters to project accurately large animal unbound brain drug concentrations” (Drug Metab Dispos, 2012):
Blank lines part the entries; values can stand above or below the compound they belong to.

Legend:
[1] = AUC(0 to infinity) in Sprague-Dawley rat plasma at 3 mg/kg, sc by LC-MS/MS analysis; format: ADME, organism-based; set-up: time infinity, dose 3 mg/kg, route subcutaneous
Nucleic Acid [2] = experiment: Ratio of drug level in cerebrospinal fluid to unbound plasma concentration in Sprague-Dawley rat at 3 mg/kg, sc by LC-MS/MS analysis; format: ADME, organism-based; set-up: dose 3 mg/kg, route subcutaneous; conditions: in vivo
[3] = Ratio of drug level in brain to plasma in Sprague-Dawley rat at 3 mg/kg, sc by LC-MS/MS analysis; format: ADME, organism-based; set-up: dose 3 mg/kg, route subcutaneous; conditions: read-out: BPR
[4] = AUC(0 to infinity) in Sprague-Dawley rat brain at 3 mg/kg, sc by LC-MS/MS analysis; format: ADME, organism-based; set-up: dose 3 mg/kg, route subcutaneous, time infinity
[5] = Ratio of unbound brain concentration to drug level in cerebrospinal fluid in Sprague-Dawley rat at 3 mg/kg, sc by LC-MS/MS analysis; format: ADME, organism-based; set-up: dose 3 mg/kg, route subcutaneous; conditions: in vivo
[6] = AUC(0 to 7 hrs) in Sprague-Dawley rat cerebrospinal fluid at 3 mg/kg, sc by LC-MS/MS analysis; format: ADME, organism-based; set-up: time < 7 hr, dose 3 mg/kg, route subcutaneous
[7] = AUC(0 to 7 hrs) in Sprague-Dawley rat plasma at 3 mg/kg, sc by LC-MS/MS analysis; format: ADME, organism-based; set-up: time < 7 hr, dose 3 mg/kg, route subcutaneous
[8] = AUC(0 to 7 hrs) in Sprague-Dawley rat brain at 3 mg/kg, sc by LC-MS/MS analysis; format: ADME, organism-based; set-up: time < 7 hr, dose 3 mg/kg, route subcutaneous
[9] = AUC(0 to infinity) in Sprague-Dawley rat cerebrospinal fluid at 3 mg/kg, sc by LC-MS/MS analysis; format: ADME, organism-based; set-up: dose 3 mg/kg, route subcutaneous, time infinity
[10] = Ratio of unbound drug level in brain to plasma in Sprague-Dawley rat at 3 mg/kg, sc by LC-MS/MS analysis; format: ADME, organism-based; set-up: dose 3 mg/kg, route subcutaneous
[11] = Ratio of unbound drug level in brain to plasma in Sprague-Dawley rat at 1 mg/kg, sc by LC-MS/MS analysis; format: ADME, organism-based; set-up: dose 1 mg/kg, route subcutaneous
[12] = Ratio of unbound brain concentration to drug level in cerebrospinal fluid in Beagle dog at 0.1 mg/kg, sc by LC-MS/MS analysis; format: ADME, organism-based, Canis lupus familiaris; set-up: dose 0.1 mg/kg, route subcutaneous; conditions: in vivo
[13] = AUC(0 to 1 hr) in cynomolgus monkey cerebrospinal fluid at 0.1 mg/kg, sc by LC-MS/MS analysis; format: ADME, organism-based, Macaca fascicularis; set-up: time < 1 hr, dose 0.1 mg/kg, route subcutaneous
[14] = Unbound fraction in Beagle dog plasma at 0.1 mg/kg, sc by LC-MS/MS analysis; format: ADME, organism-based, Canis lupus familiaris; set-up: dose 0.1 mg/kg, route subcutaneous
[15] = Ratio of unbound brain concentration to drug level in cerebrospinal fluid in Sprague-Dawley rat at 1 mg/kg, sc by LC-MS/MS analysis; format: ADME, organism-based; set-up: dose 1 mg/kg, route subcutaneous; conditions: in vivo
[16] = Ratio of drug level in brain to plasma in Beagle dog at 0.1 mg/kg, sc by LC-MS/MS analysis; format: ADME, organism-based, Canis lupus familiaris; set-up: dose 0.1 mg/kg, route subcutaneous; conditions: brain and plasma, read-out: BPR
[17] = Unbound fraction in cynomolgus monkey brain at 0.1 mg/kg, sc by LC-MS/MS analysis; format: ADME, organism-based, Macaca fascicularis; set-up: dose 0.1 mg/kg, route subcutaneous
[18] = AUC(0 to infinity) in Sprague-Dawley rat brain at 1 mg/kg, sc by LC-MS/MS analysis; format: ADME, organism-based; set-up: time infinity, dose 1 mg/kg, route subcutaneous
[19] = Ratio of unbound brain concentration to drug level in cerebrospinal fluid in cynomolgus monkey at 0.1 mg/kg, sc by LC-MS/MS analysis; format: ADME, organism-based, Macaca fascicularis; set-up: dose 0.1 mg/kg, route subcutaneous; conditions: in vivo
[20] = AUC(0 to 2 hrs) in Beagle dog plasma at 0.1 mg/kg, sc by LC-MS/MS analysis; format: ADME, organism-based, Canis lupus familiaris; set-up: time < 2 hr, dose 0.1 mg/kg, route subcutaneous
Nucleic Acid [21] = experiment: Ratio of drug level in cerebrospinal fluid to unbound plasma concentration in cynomolgus monkey at 0.1 mg/kg, sc by LC-MS/MS analysis; format: ADME, organism-based, Macaca fascicularis; set-up: dose 0.1 mg/kg, route subcutaneous; conditions: in vivo
[22] = Ratio of drug level in brain to plasma in cynomolgus monkey at 0.1 mg/kg, sc by LC-MS/MS analysis; format: ADME, organism-based, Macaca fascicularis; set-up: dose 0.1 mg/kg, route subcutaneous; conditions: brain and plasma, read-out: BPR
[23] = Unbound fraction in cynomolgus monkey plasma at 0.1 mg/kg, sc by LC-MS/MS analysis; format: ADME, organism-based, Macaca fascicularis; set-up: dose 0.1 mg/kg, route subcutaneous
[24] = AUC(0 to infinity) in Sprague-Dawley rat cerebrospinal fluid at 1 mg/kg, sc by LC-MS/MS analysis; format: ADME, organism-based; set-up: time infinity, dose 1 mg/kg, route subcutaneous
[25] = AUC(0 to 2 hrs) in Beagle dog cerebrospinal fluid at 0.1 mg/kg, sc by LC-MS/MS analysis; format: ADME, organism-based, Canis lupus familiaris; set-up: time < 2 hr, dose 0.1 mg/kg, route subcutaneous
[26] = Unbound fraction in Beagle dog brain at 0.1 mg/kg, sc by LC-MS/MS analysis
[27] = AUC(0 to 1 hr) in cynomolgus monkey brain at 0.1 mg/kg, sc by LC-MS/MS analysis; format: ADME, organism-based, Macaca fascicularis; set-up: time < 1 hr, dose 0.1 mg/kg, route subcutaneous
[28] = Ratio of unbound drug level in brain to plasma in cynomolgus monkey at 0.1 mg/kg, sc by LC-MS/MS analysis; format: ADME, organism-based, Macaca fascicularis; set-up: dose 0.1 mg/kg, route subcutaneous; conditions: brain and plasma
Nucleic Acid [29] = experiment: Ratio of drug level in cerebrospinal fluid to unbound plasma concentration in Sprague-Dawley rat at 1 mg/kg, sc by LC-MS/MS analysis; format: ADME, organism-based; set-up: dose 1 mg/kg, route subcutaneous; conditions: in vivo
[30] = AUC(0 to 2 hrs) in Sprague-Dawley rat brain at 1 mg/kg, sc by LC-MS/MS analysis; format: ADME, organism-based; set-up: time < 2 hr, dose 1 mg/kg, route subcutaneous
[31] = AUC(0 to 2 hrs) in Sprague-Dawley rat plasma at 1 mg/kg, sc by LC-MS/MS analysis; format: ADME, organism-based; set-up: time < 2 hr, dose 1 mg/kg, route subcutaneous
[32] = AUC(0 to 1 hr) in cynomolgus monkey plasma at 0.1 mg/kg, sc by LC-MS/MS analysis; format: ADME, organism-based, Macaca fascicularis; set-up: time < 1 hr, dose 0.1 mg/kg, route subcutaneous
[33] = AUC(0 to 2 hrs) in Beagle dog brain at 0.1 mg/kg, sc by LC-MS/MS analysis; format: ADME, organism-based, Canis lupus familiaris; set-up: time < 2 hr, dose 0.1 mg/kg, route subcutaneous
[34] = Ratio of drug level in brain to plasma in Sprague-Dawley rat at 1 mg/kg, sc by LC-MS/MS analysis; format: ADME, organism-based; set-up: dose 1 mg/kg, route subcutaneous; conditions: read-out: BPR
[35] = AUC(0 to infinity) in Sprague-Dawley rat plasma at 1 mg/kg, sc by LC-MS/MS analysis; format: ADME, organism-based; set-up: time infinity, dose 1 mg/kg, route subcutaneous
[36] = AUC(0 to 2 hrs) in Sprague-Dawley rat cerebrospinal fluid at 1 mg/kg, sc by LC-MS/MS analysis; format: ADME, organism-based; set-up: time < 2 hr, dose 1 mg/kg, route subcutaneous
[37] = Ratio of unbound drug level in brain to plasma in Beagle dog at 0.1 mg/kg, sc by LC-MS/MS analysis; format: ADME, organism-based, Canis lupus familiaris; set-up: dose 0.1 mg/kg, route subcutaneous; conditions: brain and plasma

- AUC(0-inf) [1]: 367 ng·h/mL
- Ratio (Nucleic Acid [2]): 1.8
- Kp [3]: 1.72
- AUC(0-inf) [4]: 635 ng·h/mL
- Ratio [5]: 0.5
- AUC(0-t) at 7 h [6]: 418 ng·h/mL
- AUC(0-t) at 7 h [7]: 365 ng·h/mL
- AUC(0-t) at 7 h [8]: 629 ng·h/mL
- AUC(0-inf) [9]: 420 ng·h/mL
- Kp uu [10]: 0.89
Compound: CCN(CC)CCNC(=O)c1cc(Cl)c(N)cc1OC [METOCLOPRAMIDE]

Compound: Cc1nc2n(c(=O)c1CCN1CCC(c3noc4cc(F)ccc34)CC1)CCCC2 [RISPERIDONE]
- Kp uu [11]: 0.23
- Ratio [12]: 1.67
- AUC(0-t) at 1 h [13]: 1.14 ng·h/mL
- fraction unbound [14]: 0.083
- Ratio [15]: 0.67
- Kp [16]: 1.01
- fraction unbound [17]: 0.0919
- AUC(0-inf) [18]: 130 ng·h/mL
- Ratio [19]: 1.82
- AUC(0-t) at 2 h [20]: 71.2 ng·h/mL
- Ratio (Nucleic Acid [21]): 0.49
- Kp [22]: 0.82
- fraction unbound [23]: 0.084
- AUC(0-inf) [24]: 11.9 ng·h/mL
- AUC(0-t) at 2 h [25]: 3.48 ng·h/mL
- fraction unbound [26]: 0.0809
- AUC(0-t) at 1 h [27]: 22.6 ng·h/mL
- Kp uu [28]: 0.89
- Ratio (Nucleic Acid [29]): 0.35
- AUC(0-t) at 2 h [30]: 108 ng·h/mL
- AUC(0-t) at 2 h [31]: 409 ng·h/mL
- AUC(0-t) at 1 h [32]: 27.6 ng·h/mL
- AUC(0-t) at 2 h [33]: 72 ng·h/mL
- Kp [34]: 0.26
- AUC(0-inf) [35]: 441 ng·h/mL
- AUC(0-t) at 2 h [36]: 11.3 ng·h/mL
- Kp uu [37]: 0.99
